Test results as given in patent publication US10344060B2 (priority 2013, dated 2019).

What was measured:
hNav1.7 = hNav1.7 (Homo sapiens, UniProt Q15858); assay: cell-based; format: cell-based; conditions: Table 12; PatchXpress, tonic block; read-out: PX hNav1.7 Tonic IC50
hNav1.4 = hNav1.4 (Homo sapiens, UniProt P35499); assay: cell-based; format: cell-based; conditions: Table 12; for IC50: PatchXpress, tonic block, read-out: PX hNav1.4 Tonic IC50; for Nav1.4/Nav1.7: ratio of PX tonic IC50 values
hNav1.4, sequence (P35499 whole entry): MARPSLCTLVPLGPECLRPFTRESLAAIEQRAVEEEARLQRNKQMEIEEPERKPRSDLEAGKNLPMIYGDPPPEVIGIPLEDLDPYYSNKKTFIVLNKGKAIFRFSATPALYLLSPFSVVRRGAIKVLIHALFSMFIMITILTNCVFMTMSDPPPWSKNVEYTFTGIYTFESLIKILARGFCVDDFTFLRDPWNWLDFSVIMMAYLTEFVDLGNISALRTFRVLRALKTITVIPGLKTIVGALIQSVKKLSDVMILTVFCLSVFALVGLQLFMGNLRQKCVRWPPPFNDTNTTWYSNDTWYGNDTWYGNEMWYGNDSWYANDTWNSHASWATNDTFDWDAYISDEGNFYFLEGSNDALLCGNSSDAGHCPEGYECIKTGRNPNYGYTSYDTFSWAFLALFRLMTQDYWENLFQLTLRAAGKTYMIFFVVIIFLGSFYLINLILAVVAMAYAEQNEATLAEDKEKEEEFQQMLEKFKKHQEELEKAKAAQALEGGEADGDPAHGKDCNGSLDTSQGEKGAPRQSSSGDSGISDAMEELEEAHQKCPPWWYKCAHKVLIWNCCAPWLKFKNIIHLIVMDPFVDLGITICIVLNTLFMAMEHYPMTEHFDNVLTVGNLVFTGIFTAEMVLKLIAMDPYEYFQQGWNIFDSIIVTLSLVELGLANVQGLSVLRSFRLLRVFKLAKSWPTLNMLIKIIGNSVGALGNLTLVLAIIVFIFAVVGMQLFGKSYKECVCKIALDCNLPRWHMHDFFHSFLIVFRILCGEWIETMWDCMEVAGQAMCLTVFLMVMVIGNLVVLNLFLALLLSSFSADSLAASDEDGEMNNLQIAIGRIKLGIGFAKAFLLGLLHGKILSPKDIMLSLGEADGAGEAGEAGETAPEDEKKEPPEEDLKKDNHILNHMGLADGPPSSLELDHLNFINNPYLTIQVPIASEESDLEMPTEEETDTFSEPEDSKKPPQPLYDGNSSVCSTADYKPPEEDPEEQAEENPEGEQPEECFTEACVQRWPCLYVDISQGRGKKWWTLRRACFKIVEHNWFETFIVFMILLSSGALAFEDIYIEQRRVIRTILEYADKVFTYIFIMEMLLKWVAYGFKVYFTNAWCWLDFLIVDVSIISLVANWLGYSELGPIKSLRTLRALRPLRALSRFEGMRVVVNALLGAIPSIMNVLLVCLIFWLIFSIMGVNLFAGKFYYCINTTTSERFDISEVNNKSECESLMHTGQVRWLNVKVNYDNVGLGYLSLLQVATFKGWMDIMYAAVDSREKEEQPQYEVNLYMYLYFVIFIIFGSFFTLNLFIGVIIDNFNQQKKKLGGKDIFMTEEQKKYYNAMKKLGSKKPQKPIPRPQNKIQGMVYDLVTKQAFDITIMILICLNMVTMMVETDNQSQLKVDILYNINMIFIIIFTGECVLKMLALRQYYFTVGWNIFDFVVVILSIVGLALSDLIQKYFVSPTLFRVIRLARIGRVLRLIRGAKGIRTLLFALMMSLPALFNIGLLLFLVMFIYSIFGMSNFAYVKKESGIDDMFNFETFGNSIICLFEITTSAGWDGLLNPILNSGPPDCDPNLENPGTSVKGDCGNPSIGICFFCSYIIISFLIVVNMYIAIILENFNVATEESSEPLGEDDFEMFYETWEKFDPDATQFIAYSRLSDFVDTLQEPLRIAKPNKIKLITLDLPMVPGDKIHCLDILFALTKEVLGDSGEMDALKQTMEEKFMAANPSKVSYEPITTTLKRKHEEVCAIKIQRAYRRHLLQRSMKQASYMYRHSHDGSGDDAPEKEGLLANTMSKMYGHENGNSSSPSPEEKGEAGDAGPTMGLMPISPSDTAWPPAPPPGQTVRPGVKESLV

hNav1.7, sequence (Q15858 whole entry): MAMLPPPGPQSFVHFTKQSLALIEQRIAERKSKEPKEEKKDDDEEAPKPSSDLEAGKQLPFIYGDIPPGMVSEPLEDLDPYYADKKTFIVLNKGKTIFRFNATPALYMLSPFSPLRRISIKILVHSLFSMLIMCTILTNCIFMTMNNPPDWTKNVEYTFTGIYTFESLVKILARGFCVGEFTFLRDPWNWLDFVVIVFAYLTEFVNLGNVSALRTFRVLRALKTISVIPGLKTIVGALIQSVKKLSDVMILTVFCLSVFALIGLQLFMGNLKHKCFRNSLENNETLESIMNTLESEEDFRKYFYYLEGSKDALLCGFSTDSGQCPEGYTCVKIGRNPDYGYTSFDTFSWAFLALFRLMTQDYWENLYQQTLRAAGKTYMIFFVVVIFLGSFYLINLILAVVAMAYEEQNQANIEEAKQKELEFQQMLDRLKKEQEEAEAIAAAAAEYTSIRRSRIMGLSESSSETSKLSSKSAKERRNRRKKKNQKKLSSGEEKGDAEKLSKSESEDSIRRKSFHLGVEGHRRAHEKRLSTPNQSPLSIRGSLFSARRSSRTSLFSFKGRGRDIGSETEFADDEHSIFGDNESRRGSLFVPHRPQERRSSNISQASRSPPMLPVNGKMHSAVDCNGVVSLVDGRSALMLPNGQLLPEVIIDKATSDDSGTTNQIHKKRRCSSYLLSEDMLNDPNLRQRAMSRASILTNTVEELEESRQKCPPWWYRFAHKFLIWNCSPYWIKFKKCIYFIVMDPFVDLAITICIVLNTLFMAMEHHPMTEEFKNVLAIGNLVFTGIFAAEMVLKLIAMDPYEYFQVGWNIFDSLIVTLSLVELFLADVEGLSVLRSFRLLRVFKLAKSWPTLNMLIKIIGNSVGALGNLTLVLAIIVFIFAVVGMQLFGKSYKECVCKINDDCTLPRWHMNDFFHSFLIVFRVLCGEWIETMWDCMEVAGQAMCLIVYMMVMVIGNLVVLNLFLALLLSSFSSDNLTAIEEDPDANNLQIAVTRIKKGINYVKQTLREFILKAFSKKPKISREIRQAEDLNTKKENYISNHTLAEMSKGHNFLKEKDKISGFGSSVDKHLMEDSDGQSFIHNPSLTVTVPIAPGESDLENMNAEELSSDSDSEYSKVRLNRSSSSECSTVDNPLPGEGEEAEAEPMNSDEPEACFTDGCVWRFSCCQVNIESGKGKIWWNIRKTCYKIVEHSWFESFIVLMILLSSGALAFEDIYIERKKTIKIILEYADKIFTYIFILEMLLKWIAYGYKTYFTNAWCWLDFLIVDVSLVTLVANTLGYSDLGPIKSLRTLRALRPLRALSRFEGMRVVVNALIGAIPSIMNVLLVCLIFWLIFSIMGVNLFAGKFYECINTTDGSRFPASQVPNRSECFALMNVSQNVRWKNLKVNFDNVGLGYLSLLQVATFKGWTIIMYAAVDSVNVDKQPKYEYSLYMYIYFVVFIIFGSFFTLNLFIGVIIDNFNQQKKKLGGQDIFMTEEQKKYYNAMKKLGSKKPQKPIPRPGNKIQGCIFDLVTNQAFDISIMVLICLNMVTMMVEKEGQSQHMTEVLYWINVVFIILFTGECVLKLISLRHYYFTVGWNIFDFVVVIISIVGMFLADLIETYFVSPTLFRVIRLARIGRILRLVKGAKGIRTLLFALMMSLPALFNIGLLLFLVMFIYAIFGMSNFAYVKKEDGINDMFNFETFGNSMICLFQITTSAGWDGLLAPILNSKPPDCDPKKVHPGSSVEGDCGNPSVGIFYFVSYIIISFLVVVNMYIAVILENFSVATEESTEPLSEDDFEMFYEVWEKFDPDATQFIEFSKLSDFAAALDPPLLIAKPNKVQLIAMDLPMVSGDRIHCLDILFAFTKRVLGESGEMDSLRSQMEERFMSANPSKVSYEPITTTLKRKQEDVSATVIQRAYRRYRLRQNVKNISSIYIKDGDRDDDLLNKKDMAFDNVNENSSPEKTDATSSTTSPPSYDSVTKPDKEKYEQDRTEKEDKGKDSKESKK

C#CC[C@H](N)C(=O)N[C@@H](Cc1ccc(O)cc1)C(=O)N[C@H]1CSSC[C@@H]2NC(=O)[C@@H]3CSSC[C@@H](C(=O)N[C@@H](CCCNC(=N)N)C(=O)N[C@@H](CCCCN)C(=O)N[C@@H](CCC(=O)O)C(=O)N[C@H](C(N)=O)[C@@H](C)CC)NC(=O)[C@H](Cc4c[nH]c5ccccc45)NC(=O)[C@H]([C@@H](C)CC)NC(=O)[C@H](CCCCN)NC(=O)[C@H](CSSC[C@H](NC(=O)[C@H]([C@@H](C)O)NC(=O)[C@H](Cc4c[nH]c5ccccc45)NC(=O)[C@H](CCCC)NC(=O)[C@H](Cc4c[nH]c5ccccc45)NC(=O)[C@H](CCCCN)NC(=O)[C@H](CCC(N)=O)NC1=O)C(=O)N[C@@H](CC(=O)O)C(=O)N[C@@H](CO)C(=O)N[C@@H](CCCCN)C(=O)N[C@@H](CCCNC(=N)N)C(=O)N[C@@H](C)C(=O)N3)NC(=O)[C@H](CCCNC(=N)N)NC(=O)[C@H](CC(C)C)NC(=O)CNC(=O)[C@H](CCC(=O)O)NC2=O [compound 855]
IC50 (hNav1.7): 1.06 nM | IC50 (hNav1.4): 193 nM | Nav1.4/Nav1.7 (hNav1.4): 182

C#CC[C@H](N)C(=O)N[C@@H](Cc1ccc(O)cc1)C(=O)N[C@H]1CSSC[C@@H]2NC(=O)[C@@H]3CSSC[C@@H](C(=O)N[C@@H](CCCNC(=N)N)C(=O)N[C@@H](CCCCN)C(=O)N[C@@H](CCC(=O)O)C(=O)N[C@H](C(N)=O)[C@@H](C)CC)NC(=O)[C@H](Cc4c[nH]c5ccccc45)NC(=O)[C@H](CCCC)NC(=O)[C@H](CCCCN)NC(=O)[C@H](CSSC[C@H](NC(=O)[C@H]([C@@H](C)O)NC(=O)[C@H](Cc4c[nH]c5ccccc45)NC(=O)[C@H](CCCC)NC(=O)[C@H](Cc4c[nH]c5ccccc45)NC(=O)[C@H](CCCCN)NC(=O)[C@H](CCC(N)=O)NC1=O)C(=O)N[C@@H](CC(=O)O)C(=O)N[C@@H](CO)C(=O)N[C@@H](CCCCN)C(=O)N[C@@H](CCCNC(=N)N)C(=O)N[C@@H](C)C(=O)N3)NC(=O)[C@H](CCCNC(=N)N)NC(=O)[C@H](CC(C)C)NC(=O)CNC(=O)[C@H](CCC(=O)O)NC2=O [compound 856]
IC50 (hNav1.7): 1.72 nM | IC50 (hNav1.4): 102 nM | Nav1.4/Nav1.7 (hNav1.4): 59

C#CC[C@H](N)C(=O)N[C@@H](Cc1ccc(O)cc1)C(=O)N[C@H]1CSSC[C@@H]2NC(=O)[C@@H]3CSSC[C@@H](C(=O)N[C@@H](CCCNC(=N)N)C(=O)N[C@@H](CCCCN)C(=O)N[C@@H](CCC(=O)O)C(=O)N[C@H](C(N)=O)[C@@H](C)CC)NC(=O)[C@H](Cc4c[nH]c5ccccc45)NC(=O)[C@H](C4CCCCC4)NC(=O)[C@H](CCCCN)NC(=O)[C@H](CSSC[C@H](NC(=O)[C@H]([C@@H](C)O)NC(=O)[C@H](Cc4c[nH]c5ccccc45)NC(=O)[C@H](CCCC)NC(=O)[C@H](Cc4c[nH]c5ccccc45)NC(=O)[C@H](CCCCN)NC(=O)[C@H](CCC(N)=O)NC1=O)C(=O)N[C@@H](CC(=O)O)C(=O)N[C@@H](CO)C(=O)N[C@@H](CCCCN)C(=O)N[C@@H](CCCNC(=N)N)C(=O)N[C@@H](C)C(=O)N3)NC(=O)[C@H](CCCNC(=N)N)NC(=O)[C@H](CC(C)C)NC(=O)CNC(=O)[C@H](CCC(=O)O)NC2=O [compound 859]
IC50 (hNav1.7): 0.489 nM | IC50 (hNav1.4): 177 nM | Nav1.4/Nav1.7 (hNav1.4): 361

C#CC[C@H](N)C(=O)N[C@@H](Cc1ccc(O)cc1)C(=O)N[C@H]1CSSC[C@@H]2NC(=O)[C@@H]3CSSC[C@@H](C(=O)N[C@@H](CCCNC(=N)N)C(=O)N[C@@H](CCCCN)C(=O)N[C@@H](CCC(=O)O)C(=O)N[C@H](C(N)=O)[C@@H](C)CC)NC(=O)[C@H](Cc4c[nH]c5ccccc45)NC(=O)[C@H](CC4CCCCC4)NC(=O)[C@H](CCCCN)NC(=O)[C@H](CSSC[C@H](NC(=O)[C@H]([C@@H](C)O)NC(=O)[C@H](Cc4c[nH]c5ccccc45)NC(=O)[C@H](CCCC)NC(=O)[C@H](Cc4c[nH]c5ccccc45)NC(=O)[C@H](CCCCN)NC(=O)[C@H](CCC(N)=O)NC1=O)C(=O)N[C@@H](CC(=O)O)C(=O)N[C@@H](CO)C(=O)N[C@@H](CCCCN)C(=O)N[C@@H](CCCNC(=N)N)C(=O)N[C@@H](C)C(=O)N3)NC(=O)[C@H](CCCNC(=N)N)NC(=O)[C@H](CC(C)C)NC(=O)CNC(=O)[C@H](CCC(=O)O)NC2=O [compound 860]
IC50 (hNav1.7): 1.61 nM | IC50 (hNav1.4): 117 nM | Nav1.4/Nav1.7 (hNav1.4): 73

C#CC[C@H](N)C(=O)N[C@@H](Cc1ccc(O)cc1)C(=O)N[C@H]1CSSC[C@@H]2NC(=O)[C@@H]3CSSC[C@@H](C(=O)N[C@@H](CCCNC(=N)N)C(=O)N[C@@H](CCCCN)C(=O)N[C@@H](CCC(=O)O)C(=O)N[C@@H](Cc4ccccc4)C(N)=O)NC(=O)[C@H](Cc4c[nH]c5ccccc45)NC(=O)[C@H](CC(C)C)NC(=O)[C@H](CCCCN)NC(=O)[C@H](CSSC[C@H](NC(=O)[C@H]([C@@H](C)O)NC(=O)[C@H](Cc4c[nH]c5ccccc45)NC(=O)[C@H](CCCC)NC(=O)[C@H](Cc4c[nH]c5ccccc45)NC(=O)[C@H](CCCCN)NC(=O)[C@H](CCC(N)=O)NC1=O)C(=O)N[C@@H](CC(=O)O)C(=O)N[C@@H](CO)C(=O)N[C@@H](CCCCN)C(=O)N[C@@H](CCCNC(=N)N)C(=O)N[C@@H](C)C(=O)N3)NC(=O)[C@H](CCCNC(=N)N)NC(=O)[C@H](CC(C)C)NC(=O)CNC(=O)[C@H](CCC(=O)O)NC2=O [compound 861]
IC50 (hNav1.7): 0.388 nM | IC50 (hNav1.4): 304 nM | Nav1.4/Nav1.7 (hNav1.4): 785

C#CC[C@H](N)C(=O)N[C@@H](Cc1ccc(O)cc1)C(=O)N[C@H]1CSSC[C@@H]2NC(=O)[C@@H]3CSSC[C@@H](C(=O)N[C@@H](CCCNC(=N)N)C(=O)N[C@@H](CCCCN)C(=O)N[C@@H](CCC(=O)O)C(=O)N[C@@H](CC4CCCCC4)C(N)=O)NC(=O)[C@H](Cc4c[nH]c5ccccc45)NC(=O)[C@H](CC(C)C)NC(=O)[C@H](CCCCN)NC(=O)[C@H](CSSC[C@H](NC(=O)[C@H]([C@@H](C)O)NC(=O)[C@H](Cc4c[nH]c5ccccc45)NC(=O)[C@H](CCCC)NC(=O)[C@H](Cc4c[nH]c5ccccc45)NC(=O)[C@H](CCCCN)NC(=O)[C@H](CCC(N)=O)NC1=O)C(=O)N[C@@H](CC(=O)O)C(=O)N[C@@H](CO)C(=O)N[C@@H](CCCCN)C(=O)N[C@@H](CCCNC(=N)N)C(=O)N[C@@H](C)C(=O)N3)NC(=O)[C@H](CCCNC(=N)N)NC(=O)[C@H](CC(C)C)NC(=O)CNC(=O)[C@H](CCC(=O)O)NC2=O [compound 862]
IC50 (hNav1.7): 0.593 nM | IC50 (hNav1.4): 36.6 nM | Nav1.4/Nav1.7 (hNav1.4): 62

C#CC[C@H](N)C(=O)N[C@@H](Cc1ccc(O)cc1)C(=O)N[C@H]1CSSC[C@@H]2NC(=O)[C@@H]3CSSC[C@@H](C(=O)N[C@@H](CCCNC(=N)N)C(=O)N[C@@H](CCCCN)C(=O)N[C@@H](CCC(=O)O)C(=O)N[C@H](C(N)=O)[C@@H](C)CC)NC(=O)[C@H](Cc4c[nH]c5ccccc45)NC(=O)[C@H](CC(C)C)NC(=O)[C@H](CCCCN)NC(=O)[C@H](CSSC[C@H](NC(=O)[C@H]([C@@H](C)O)NC(=O)[C@H](Cc4c[nH]c5ccccc45)NC(=O)[C@H](Cc4ccccc4)NC(=O)[C@H](Cc4c[nH]c5ccccc45)NC(=O)[C@H](CCCCN)NC(=O)[C@H](CCC(N)=O)NC1=O)C(=O)N[C@@H](CC(=O)O)C(=O)N[C@@H](CO)C(=O)N[C@@H](CCCCN)C(=O)N[C@@H](CCCNC(=N)N)C(=O)N[C@@H](C)C(=O)N3)NC(=O)[C@H](CCCNC(=N)N)NC(=O)[C@H](CC(C)C)NC(=O)CNC(=O)[C@H](CCC(=O)O)NC2=O [compound 863]
IC50 (hNav1.7): 1.36 nM | IC50 (hNav1.4): 61.6 nM | Nav1.4/Nav1.7 (hNav1.4): 45
